From patent US20220249441A1, “Homodimeric Tobramycin Adjuvant Repurposes Novobiocin as an Effective Antibacterial Agent Against Gram-Negative Bacteria” (priority 2019, published 2022)
Where two headings read alike, the source gives them in different places.

Assays:
A. baumannii = assay: Checkerboard assay (antibiotic + adjuvant combination MIC); assay type: cell-based, Acinetobacter baumannii; details: Acinetobacter baumannii, read-out: MIC of Novobiocin Alone
Procedure: (§1) Antimicrobial Susceptibility Assay. The in vitro antimicrobial activity of all compounds/antibiotics against a panel of bacteria was evaluated by microbroth dilution method in accordance with the Clinical and Laboratory Standards Institute (CLSI) guidelines (using ATCC strains as quality control strains) (54). Overnight grown bacterial cultures were diluted in saline to achieve a 0.5 McFarland turbidity, followed by 1:50 dilution in Mueller-Hinton broth (MHB) for inoculation to a final concentration of approximately 5×10^5 CFU/mL. […] The lowest concentration that prevented the visible growth of bacteria was defined as the MIC for each antimicrobial agent. The broth with or without bacterial cells was used as positive or negative control, respectively.
(§2) Checkerboard Assay. Combination studies with different antibiotics were performed in 96-well plates as previously described (19). Briefly, the antibiotic of interest was serially diluted in MHB along the abscissa while the adjuvant (tobramycin homodimer) was serially diluted in MHB along the ordinate. This creates a 10×7 matrices wherein each well consists of a combination of different antibiotic and adjuvant concentrations. Overnight grown bacterial cultures were diluted in saline to achieve a 0.5 McFarland turbidity, followed by 1:50 dilution in Mueller-Hinton broth (MHB) for inoculation to a final concentration of approximately 5×10^5 CFU/mL. […] MIC was recorded as wells with the lowest concentration of drugs with no bacterial growth. The fractional inhibitory concentration (FIC) for each antibiotic was calculated by dividing the MIC of the antibiotic in the presence of adjuvant by the MIC of the antibiotic alone. Similarly, the FIC of adjuvant was calculated by dividing the MIC of the adjuvant in the presence of antibiotic by the MIC of the adjuvant alone. FIC index is the sum of both FICs. FIC indices of ≤0.5 were deemed synergistic; >0.5-4, no interaction; and >4, antagonistic.

MDR A. baumannii = assay: Galleria mellonella in vivo larvae-infection model; details: single dose 100 mg/kg, agent alone; after 24 h
Procedure: Galleria mellonella In vivo Larvae-Infection Model. In vivo synergistic effects were determined using Galleria mellonella infection model, as previously described (49). Briefly, larvae were purchased from The Worm Lady Live Feeder (ON, Canada), stored in their natural habitat at 16° C., and used within 10 days of delivery. The larvae (average weight of 250 mg) were used for tolerability and efficacy studies. Tolerability study was performed by injecting a 10 μL aliquot of antimicrobial agents only at concentrations equivalent to 100 mg/kg or 200 mg/kg. The larvae (ten in each group) were incubated at 37° C. and monitored for 96 h. For efficacy studies, the virulence and bacterial load required to kill 100% of the larvae within 24 h (with no treatment) was first determined, which is approximately 10 CFU. Overnight grown culture of respective MDR A. baumannii isolate was standardized to 0.5 McFarland standard and diluted in PBS to a final concentration of 10^3 CFU/mL. A 10 μL aliquot of this solution (˜10 CFU) was injected into each larva and incubated for 3 h at 37° C. […] Larvae treated with 10 μL of PBS or high concentrations of test antibiotics served as negative and positive control, respectively. The larvae were incubated at 37° C. in Petri dishes lined with filter paper and scored for survivability every 6 h for up to 36 h. […]

P. aeruginosa = assay: Checkerboard assay (antibiotic + adjuvant combination MIC); assay type: cell-based, Pseudomonas aeruginosa; details: Pseudomonas aeruginosa, read-out: MIC of Novobiocin Alone
MRSE 61589 = assay: MIC and combination against Gram-positive bacteria; assay type: cell-based; details: Staphylococcus epidermidis
Procedure: (§3) Next, we investigated whether tobramycin by itself would potentiate novobiocin against Gram-negative bacteria.
as §1

MRSA ATCC 33592 = assay: MIC and combination against Gram-positive bacteria; assay type: cell-based; details: Staphylococcus aureus
Procedure: as §3, §1

E. faecium ATCC 27270 = assay: MIC and combination against Gram-positive bacteria; assay type: cell-based; details: Enterococcus faecium, ATCC27270
Procedure: as §3, §1

A. baumannii ATCC 17978 [1] = assay: microbe, parasite or virus in culture; assay type: cell-based, Acinetobacter baumannii
Procedure: Development of Resistance Study. […] Tobramycin and colistin were included as controls. At 24-hour intervals, the cultures were assessed for growth. […] This serial passaging was repeated for 8 days.

E. cloacae = assay: Checkerboard assay (antibiotic + adjuvant combination MIC); assay type: cell-based, Enterobacter cloacae; details: Enterobacter cloacae, read-out: MIC of Novobiocin Alone
Procedure: as §1, §2

K. pneumoniae = assay: as above; assay type: cell-based, Klebsiella pneumoniae; details: for MIC: Klebsiella pneumoniae, read-out: MIC of Novobiocin Alone
Procedure: as §1, §2

A. baumannii ATCC 17978 [2] = assay: Time-kill assay; assay type: cell-based, Acinetobacter baumannii; details: novobiocin 32 μg/ml, after 24 h
Procedure: Time-kill Assay. […] At specific time intervals (0, 1, 3, 6, 9, and 24 h), 100 μl was taken from each sample, serially diluted in sterile PBS, plated on LB agar plates, and incubated at 37° C. in a humid 5% CO2-enriched atmosphere. Bacterial colonies were counted after 20 h of incubation.

E. coli = assay: Checkerboard assay (antibiotic + adjuvant combination MIC); assay type: cell-based, Escherichia coli; details: Escherichia coli, read-out: MIC of Novobiocin Alone
Procedure: as §1, §2

In the case of `CO[C@@H]1[C@@H](OC(N)=O)[C@@H](O)[C@H](Oc2ccc3c(O)c(NC(=O)c4ccc(O)c(CC=C(C)C)c4)c(=O)oc3c2C)OC1(C)C` [Novobiocin], the MIC (A. baumannii; A. baumannii 027) is reported as 8 µg/mL, the MIC (A. baumannii; A. baumannii 031) is reported as 8 µg/mL and the MIC (A. baumannii; A. baumannii 92247) is reported as 4 µg/mL. The MIC (A. baumannii; A. baumannii LAC-4) was 8 µg/mL, the MIC (A. baumannii; AB 92247) was 4 µg/mL and the MIC (A. baumannii; ATCC17978, A. baumannii ATCC 17978) was 16 µg/mL. For the same molecule, the MIC (A. baumannii; A. baumannii 110193) was 256 µg/mL, the “mortality of infected larvae” value (MDR A. baumannii) was 100% and the MIC (P. aeruginosa; P. aeruginosa 259-96918) was 512 µg/mL. It also gave an MIC (P. aeruginosa; P. aeruginosa 260-97103) of 256 µg/mL, an MIC (P. aeruginosa; P. aeruginosa 262-101856) of 512 µg/mL and an MIC (P. aeruginosa; P. aeruginosa 264-104354) of 512 µg/mL. It also gave an MIC (P. aeruginosa; P. aeruginosa 91433) of 16 µg/mL, an MIC (P. aeruginosa; P. aeruginosa 100036) of 1020 µg/mL and an MIC (P. aeruginosa; P. aeruginosa 101243) of 128 µg/mL. It also gave an MIC (P. aeruginosa; P. aeruginosa 101885) of 1020 µg/mL, an MIC (P. aeruginosa; P. aeruginosa 114228) of 512 µg/mL and an MIC (P. aeruginosa; PA 91433) of 16 µg/mL. For the same molecule, the MIC (P. aeruginosa; PA 101243) was 128 µg/mL, the MIC (P. aeruginosa; PA 114228) was 512 µg/mL and the MIC (P. aeruginosa; PAO1, P. aeruginosa PAO1) was 512 µg/mL. The MIC (P. aeruginosa; PAO1, PAO1 (wild-type)) was 512 µg/mL, the MIC (P. aeruginosa; PAO1, PAO1) was 512 µg/mL and the MIC (P. aeruginosa; PAO200 (efflux-deficient)) was 32 µg/mL. The MIC (P. aeruginosa; PAO750 (efflux-deficient)) was 32 µg/mL, the MIC (MRSE 61589) was 0.0625 µg/mL and the MIC (MRSA ATCC 33592) was 0.125 µg/mL. The MIC (E. faecium ATCC 27270) was 2 µg/mL, the “fold change in MIC” value (A. baumannii ATCC 17978 [1]; after 3 days of serial passaging) was 64 fold and the “fold change in MIC” value (A. baumannii ATCC 17978 [1]; after 5 days of serial passaging) was 256 fold. For the same molecule, the MIC (E. cloacae; E. cloacae 117029) was 1020 µg/mL, the MIC (E. cloacae; E. cloacae 118568) was 1020 µg/mL and the MIC (E. cloacae; E. cloacae 121187) was 64 µg/mL. The MIC (E. cloacae; EC 118568) was 1020 µg/mL, the “MIC of Novobiocin Alone” value (K. pneumoniae) was 256 µg/mL and the MIC (K. pneumoniae; K. pneumoniae 113250) was 512 µg/mL. The MIC (K. pneumoniae; K. pneumoniae 113254) was 256 µg/mL, the MIC (K. pneumoniae; K. pneumoniae 116381) was 1020 µg/mL and the time-kill outcome (A. baumannii ATCC 17978 [2]) was “bacteriostatic”. For the same molecule, the MIC (E. coli; ATCC25922, E. coli ATCC 25922) was 64 µg/mL, the MIC (E. coli; E. coli 94393) was 128 µg/mL and the MIC (E. coli; E. coli 94474) was 256 µg/mL. It also gave an MIC (E. coli; E. coli 107115) of 128 µg/mL.
